According to patent publication US20250163051A1, “PYRIMIDO AROMATIC RING COMPOUND AND USE THEREOF IN DRUG” (SUNSHINE LAKE PHARMA CO., LTD., priority 2022, published 2025):

Tests used:
CYP1A2 = target: T1, CYP1A2 (Homo sapiens, UniProt P05177); test: Inhibition of human liver microsomal CYP1A2; format: in vitro ADME; settings: human liver microsomes, 10 μM test substance; read-out: Relative inhibition rate (%) CYP1A2
T1 construct: from tissue; host or cells: human liver microsomes
T1 sequence (P05177 1-516): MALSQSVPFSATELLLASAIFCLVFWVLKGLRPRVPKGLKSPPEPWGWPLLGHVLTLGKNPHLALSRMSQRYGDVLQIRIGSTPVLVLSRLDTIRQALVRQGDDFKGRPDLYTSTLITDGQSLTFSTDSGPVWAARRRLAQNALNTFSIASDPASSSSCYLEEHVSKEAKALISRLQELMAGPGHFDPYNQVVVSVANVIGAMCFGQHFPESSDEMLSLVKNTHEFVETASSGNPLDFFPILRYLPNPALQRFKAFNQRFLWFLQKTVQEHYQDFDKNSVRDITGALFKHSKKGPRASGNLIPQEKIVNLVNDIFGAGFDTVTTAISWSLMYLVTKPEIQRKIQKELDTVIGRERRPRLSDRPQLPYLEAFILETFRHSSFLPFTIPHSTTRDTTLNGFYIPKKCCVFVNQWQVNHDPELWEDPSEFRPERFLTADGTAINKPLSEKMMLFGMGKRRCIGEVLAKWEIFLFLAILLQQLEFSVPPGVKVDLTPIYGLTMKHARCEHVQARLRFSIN
Description: (§1) Experimental purpose: The inhibitory effects of the test compounds on the major metabolizing enzymes CYP1A2, CYP2C19, CYP2D6 and CYP3A4 in microsomes were evaluated using the human liver microsomal system. Experimental method: The test substance was incubated with a suspension of human liver microsomes containing cytochrome P450 enzymes CYP1A2, CYP2C19, CYP2D6 and CYP3A4 at a concentration of 10 μM in the final incubation system. The known substrates were metabolized by the corresponding single enzymes to generate specific metabolites, and the metabolites were determined by UPLC-MS/MS method. The relative inhibition rate (%) was calculated by the percentage reduction of metabolite production by the test compound and solvent DMSO in the same time period. N is the concentration value of the probe substrate metabolite and it is assumed that the […] with or without inhibitor at 0 min is 0. N+inh is the metabolite concentration in the group with inhibitor, and Nveh is the metabolite concentration in the group without inhibitor. The results of the inhibition test of the compounds of the present invention on human liver microsomal CYP enzymes are shown in Table C.

[1] = Cell toxicity (Celltiter-Glo) in HEK-Blue hTLR8 cells; settings: human
Description: Purpose: HEK-Blue™ hTLR7 and HEK-Blue™ hTLR8 cells were used to detect the agonist and cytotoxic activities of compounds against hTLR7 and hTLR8.
The experimental steps were as shown below: • 1) Preparation of compound: The compound was prepared into a 20 mM stock solution with DMSO, and then the stock solution was diluted 3-fold in a gradient and added to a 96-well plate, for a total of 10 concentrations, with duplicate wells for each concentration. For negative control wells, 0.5 μL DMSO was added to each well. The final DMSO concentration was 0.5%. • 2) HEK-Blue™ hTLR7 or HEK-Blue™ hTLR8 cells were suspended in culture medium and then seeded into 96-well plates containing compounds at a cell count of 50,000 per well. The compounds and cells were incubated for 24 h at 37° C., 5% Co2. • 3) QUANTI-Blue was used for the detection solution: to a mixture of 1 mL of QB reagent and 1 mL of QB buffer was added 98 mL of sterile water, the mixture was mixed and dissolved, and then placed at room temperature for 10 min. • 4) Activity test of the compound: 20 μL of the culture supernatant in step 2) was added to each well of a 96-well plate containing 180 μL of QUANTI-Blue detection solution. After incubation at 37° C. for 1 h, the absorbance at 650 nm (OD650) was detected using a multifunctional microplate reader Flextation III. • 5) Detection of cell activity: The chemiluminescent signal (RLU) was detected using the multifunctional microplate reader Flextation III according to the instructions of Celltiter-Glo. • 6) Data analysis
Detection of cell activity: The calculation formula for cell activity % is as follows.
The cell activity % values were analyzed using GraphPad Prism software, and the compound dose-effect curves were fitted to calculate the CC50 values of the compounds.
Cell activity %=RLU compound/RLU DMSO Control*100%

CYP2C19 = target: T2, CYP2C19 (Homo sapiens, UniProt P33261); test: Inhibition of human liver microsomal CYP2C19; format: in vitro ADME; settings: human liver microsomes, 10 μM test substance; read-out: Relative inhibition rate (%) CYP2C19
T2 construct: from tissue; host or cells: human liver microsomes
Description: as §1

T2 sequence (P33261 whole entry): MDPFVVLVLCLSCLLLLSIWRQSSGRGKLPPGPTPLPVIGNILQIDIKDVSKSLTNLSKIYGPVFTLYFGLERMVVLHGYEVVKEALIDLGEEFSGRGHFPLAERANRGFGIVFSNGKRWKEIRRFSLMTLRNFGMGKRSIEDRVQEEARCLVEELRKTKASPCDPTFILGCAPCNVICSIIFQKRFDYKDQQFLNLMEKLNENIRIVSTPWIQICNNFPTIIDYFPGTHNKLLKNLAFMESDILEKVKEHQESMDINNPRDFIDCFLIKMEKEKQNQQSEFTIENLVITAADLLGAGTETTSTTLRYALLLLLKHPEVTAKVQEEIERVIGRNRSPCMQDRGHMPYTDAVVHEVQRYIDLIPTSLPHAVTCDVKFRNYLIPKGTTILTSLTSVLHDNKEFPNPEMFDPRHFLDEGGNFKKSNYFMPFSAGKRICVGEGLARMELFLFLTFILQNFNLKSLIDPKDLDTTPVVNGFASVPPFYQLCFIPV

Row | Compound | inhibition at 10 µM (CYP1A2) | CC50 at 24 h [1] | inhibition at 10 µM (CYP2C19)
1 | C=CCCN(C)Cc1c[nH]c(=O)cc1-c1ccc2c(N[C@@](C)(CO)CCCC)nc(N)nc2c1 [Example 35] | 2.7% | > 100 µM | 9.7%
2 | CCCC[C@](C)(CO)Nc1nc(N)nc2cc(-c3cc(=O)[nH]cc3CN(C)CCOC)cnc12 [Example 21] | -4.1% | > 100 µM | 10.5%
3 | CCCC[C@](C)(CO)Nc1nc(N)nc2cc(-c3cc(=O)n(C)cc3CN3CCCCC3)ccc12 [Example 8] | -10.5% | 98.3 µM | 9.3%
4 | CCCCN(C)Cc1c[nH]c(=O)cc1-c1cnc2c(N[C@@](C)(CO)CCCC)nc(N)nc2c1 [Example 28, (R)-4-(2-Amino-4-((1-hydroxy-2-methylhexan-2-yl)amino)pyrido[3,2-d]pyrimidin-7-yl)-5-((butyl(methyl)amino)methyl)pyridin-2(1H)-one] | 5.1% | > 100 µM | 30.5%
